Consider four compounds from article PMC7767053, “Functional Analysis of Odorant-Binding Proteins 12 and 17 from Wheat Blossom Midge Sitodiplosis mosellana Géhin (Diptera: Cecidomyiidae)” (Insects, 2020).

Entries after “also recorded” stand apart in the source; their conditions may differ. Where two headings read alike, the source gives them in different places. Bounds are passed on as bounds.

In one test the target is SmosOBP12 (Sitodiplosis mosellana, UniProt A0A346RTY7). As to the kind of experiment: Fluorescence competitive binding assay with 1-NPN probe, recombinant SmosOBP12. Conditions: for Ki: calculated from IC50, Ki = [IC50]/(1 + [1-NPN]/K1-NPN). The method, then: (§1) To determine binding affinities of SmosOBP12 and SmosOBP17 to host plant volatile compounds, fluorescence competitive binding assays were conducted using 1-N-phenyl-naphthylamine (1-NPN) as the fluorescent probe. Twenty-eight volatile compounds from winter wheat (Table 2) were selected based on our previous research. Both the probe and candidate ligands were dissolved in chromatographic-grade methanol to obtain 1 mM stock solutions, whereas recombinant SmosOBPs were diluted in 20 mM Tris-HCl (pH 7.4) to 2 μM. Fluorescence intensity was detected on an F-4600 fluorescence spectrophotometer (Hitachi, Tokyo, Japan) with a 1 cm light path quartz cuvette. Slits of both excitation and emissions were 10 nm in width. The probe was excited at 337 nm, and emission spectra were recorded between 370 and 550 nm.
Chain of SmosOBP12 (A0A346RTY7 entry or part of it): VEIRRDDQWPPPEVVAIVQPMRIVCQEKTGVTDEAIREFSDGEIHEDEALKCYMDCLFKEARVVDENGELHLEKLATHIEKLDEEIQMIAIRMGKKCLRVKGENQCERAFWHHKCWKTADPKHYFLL
(§2) Affinities of SmosOBPs to tested volatile ligands were measured by competition assays: to the 1 mL solution containing 2 μM recombinant protein and 2 μM 1-NPN, 1 mM solution of each putative volatile ligand (in a 2 µL aliquot) was added to final concentrations of 2–14 μM for SmosOBP12 and 2–40 μM for SmosOBP17, respectively. Maximal fluorescence intensities were plotted against ligand concentrations. Data were obtained from three independent measurements.
(§3) The Kd value was calculated using GraphPad Prism 5 (GraphPad Software Inc., La Jolla, CA, USA) via nonlinear regression for a unique site of binding. The inhibition constant (Ki) of each ligand competitor was calculated from the corresponding IC50 value (the concentration of competitor displacing 50% of initial fluorescence intensity) according to the equation: Ki = [IC50]/(1 + [1-NPN]/K1-NPN), where [1-NPN] is the free concentration of 1-NPN, and K1-NPN is the dissociation constant of the SmosOBPs/1-NPN complex.

The target of a further test is SmosOBP17 (Sitodiplosis mosellana, UniProt A0A346RTY9). As to the kind of experiment: Fluorescence competitive binding assay with 1-NPN probe, recombinant SmosOBP17. Conditions: for Ki: calculated from IC50, Ki = [IC50]/(1 + [1-NPN]/K1-NPN); for binding to SmosOBP17 (in words): fluorescence competitive binding. As for the experimental part: as §1, §2, §3
Chain of SmosOBP17 (A0A346RTY9 entry or part of it): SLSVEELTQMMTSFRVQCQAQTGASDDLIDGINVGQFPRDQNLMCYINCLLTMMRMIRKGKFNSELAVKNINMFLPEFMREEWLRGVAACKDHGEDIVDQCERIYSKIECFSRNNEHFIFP
Another test deals with S. mosellana females. Nature of the test: Y-tube olfactometer bioassay. In kind it is in vivo, Sitodiplosis mosellana. Conditions: 10 μL of 20 μg/μL in paraffin oil vs paraffin oil control; 60 females. The method, then: Behavioral responses of S. mosellana females to the 28 volatile ligands were measured in a glass Y-tube olfactometer. The base and two arms of the Y-tube are 15 cm in length and 25 mm in internal diameter. The angle between arms is 60°. A 10 μL aliquot of the test chemical in paraffin oil at a concentration of 20 μg/μL [45] was applied to a filter paper strip (20 × 20 mm), which was allowed to evaporate for 20 s and then placed into one of the two odor bottles. The other odor bottle contained a filter paper strip treated with 10 μL of paraffin oil as the control. Moist, activated-charcoal filtered air entered both odor bottles connected by Teflon tubing to their respective arms of the Y-tube. The airflow rate through the olfactometer was 100 mL/min, which was measured by a float rotor meter. A newly emerged female S. mosellana adult was introduced into the end of the base of the Y-tube, which was then immediately covered with a dark paper box. An office lamp (20 W) illuminated the joint of two arms to facilitate observation. The choice was made if the S. mosellana female walked or flew 5 cm past the Y junction within 5 min and remained there for at least 15 s. Otherwise, it would be recorded as no-choice. Odor source was renewed for every five individuals. After testing for 10 individuals, the Y-tube was thoroughly cleaned with 95% ethanol and dried, and the treatment and control arms were switched to avoid the directional bias. After one odor source was tested, the Y-tube, odor bottles, and Teflon tubing were cleaned and dried before reuse. All experiments were conducted in a laboratory with a temperature of 25 ± 1 °C from 5:00 to 9:00 p.m. Sixty female adults were tested in each treatment group, and each individual was used only once. The choice response of insects in each treatment group was analyzed by the chi-square test using SPSS 20.0 software (Chicago, IL, USA). Non-selecting insects were recorded but not included in the statistical analysis.

Test [1] deals with female antennae of S. mosellana. More on the design: method as in Cheng et al., 2020. The settings on record: ref Cheng et al., 2020; cited from earlier work.
The next test has as its system SmosOBP11. More on the design: method as in PMID 31017726. The settings on record: cited from earlier work.
In another test the test system is SmosOBP16. More on the design: method as in PMID 31017726. Conditions: cited from earlier work.
In another test the test system is SmosOBP21. The arrangement: method as in PMID 31017726. The settings on record: cited from earlier work.
Setting [2] is: displacement of 1-NPN, 2 μM protein, 2 μM 1-NPN, ligand 2–14 μM, three independent measurements, read-out: SmosOBP12 IC50.
The mark [3] stands for this setting: displacement of 1-NPN, 2 μM protein, 2 μM 1-NPN, ligand 2–40 μM, three independent measurements, read-out: SmosOBP17 IC50.

Turning to `CCCCCCOC(C)=O` [Hexyl acetate], the Ki was 10.42 ± 0.08 µM on SmosOBP12 (read-out: SmosOBP12 Ki) and 25.51 ± 0.02 µM on SmosOBP17. The results for the IC50 on SmosOBP12 (setting [2]) and at SmosOBP17 (setting [3]) were 12.88 ± 0.09 µM and 33.96 ± 0.03 µM, respectively. For the same compound, in the test with S. mosellana females, the “behavioral response of S. mosellana female adults” value (“behavioral response” below) was “intensive response; also recorded: significant attraction; also recorded: significantly attracted”. For the same compound, the “electrophysiological response on female antennae” value in test [1] is given as “strong electrophysiological responses”.

As to `COC(=O)c1ccccc1O` [Methyl salicylate], the IC50 at SmosOBP12 worked out at 11.9 ± 0.24 µM; at SmosOBP17 it was 26.8 ± 0.27 µM. For the same compound, the Ki on SmosOBP12 (SmosOBP12 Ki) was 9.62 ± 0.33 µM. Moreover, in the test with S. mosellana females, the “behavioral response” value is “intensive response; also recorded: significant attraction; also recorded: significantly attracted”. Further, the “electrophysiological response on female antennae” value in test [1] was “strong electrophysiological responses”.

`C=CC(C)=CCC=C(C)C` [Ocimene]: the Ki is 8.2 µM on SmosOBP12 (listed as ocimene, read-out: SmosOBP12 Ki); 8.24 ± 0.03 µM at SmosOBP12 (read-out: SmosOBP12 Ki); over 30 µM at SmosOBP17. The IC50 at SmosOBP12 (setting [2]) is 10.17 ± 0.04 µM; on SmosOBP17 (setting [3]) it was over 40 µM. The “binding to SmosOBP17 (in words)” value at SmosOBP17 is “insensitive; also recorded: did not bind”. The “behavioral response” value with S. mosellana females was “repelled; also recorded: intensive response; also recorded: significant repulsion; also recorded: strong repelling effect”. In the test with SmosOBP11, the “binding to SmosOBP11 (in words)” value is recorded as “did not bind”. Also, the “binding to SmosOBP16 (in words)” value in the test on SmosOBP16 is “did not bind”. In the test with SmosOBP21, the “binding to SmosOBP21 (in words)” value is “did not bind”.

Regarding `C=C/C(C)=C/C/C=C(\C)CCC=C(C)C` [α-Farnesene], the values for the Ki at SmosOBP12 (read-out: SmosOBP12 Ki) and at SmosOBP17 were over 11.3 µM and over 30 µM, respectively. Further, the IC50 on SmosOBP12 (setting [2]) is over 14 µM; at SmosOBP17 (setting [3]), over 40 µM. Moreover, at SmosOBP12 (fluorescence competitive binding), the “binding to SmosOBP12 (in words)” value is listed as “did not show any affinity; also recorded: no affinity”. In addition, the “binding to SmosOBP17 (in words)” value on SmosOBP17 is recorded as “did not show any affinity; also recorded: no affinity”. Besides, in the test on S. mosellana females, the “behavioral response” value is reported as “intensive response; also recorded: significant repulsion; also recorded: repelled”. Besides, the “binding to SmosOBP11 (in words)” value with SmosOBP11 is recorded as “no affinity”. For the same compound, the “binding to SmosOBP16 (in words)” value with SmosOBP16 is reported as “no affinity”. Besides, the “binding to SmosOBP21 (in words)” value in the test on SmosOBP21 is “no affinity”.
